Assay results: patent publication US9670204B2, “Compounds and pharmaceutical compositions thereof for the treatment of inflammatory disorders” (Galapagos NV, priority 2013, dated 2017)

How the values were obtained:
LPA 18:2 in human plasma = assay: Human whole blood (plasma) LPA assay; assay type: biochemical; settings: 2 h at 37 C, LPA 18:2 by LC-MS/MS
Description: Blood is collected from healthy volunteers who gave informed consent into sodium heparin tubes by venipuncture, then gently inverted several times to prevent clotting. Tubes are centrifuged at 3000 rpm for 15 min at 4° C. then plasma is stored at −80° C. Compounds are diluted in DMSO in concentration dependent manner then 0.5 μL are dispensed into 96-well plate placed in ice. Plasma is defrosted on ice then 49.5 μL of plasma are added into the well containing 0.5 μL of compound (1% DMSO final). Plates are covered with a lid in polypropylene and incubated at +37° C., 5% CO2, for 2 h under gentle shaking (except controls which are stored at −20° C.).
At the end of the incubation, controls are defrosted in ice and transferred in the incubated plates for LC-MS/MS analysis with a non GLP-validated method. For the analysis, plasma proteins from a 10 μL incubated plates are precipitated with an excess of methanol containing the internal standard, LPA 17:0. After centrifugation, the corresponding supernatant is injected on a C18 column. Analytes are eluted out of the column under isocratic conditions. An API5500 QTRAP mass spectrometer (ABSciex™) is used for the detection of LPA 18:2. No calibration curve is prepared for LPA 18:2, however relative quantities are evaluated based on the peak area.

LPA 18:2 in rat plasma = assay: Rat whole blood (plasma) LPA assay; assay type: biochemical; settings: 2 h at 37 C, LPA 18:2 by LC-MS/MS
How it was run: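 Heparinised rat plasma spiked with compound (1% DMSO final), incubated 2 h at 37 °C, 5% CO2 with shaking; controls kept at −20 °C. After methanol precipitation with LPA 17:0 internal standard, LPA 18:2 measured by LC-MS/MS (C18, isocratic), relative quantities from peak area without calibration.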

hENPP2 [1] = target: T1, hENPP2 (UniProtKB/SwissProt Q13822) (Homo sapiens (Human), UniProt Q13822); assay: fluorescent hENPP2 biochemical assay, FS-3 as substrate; settings: read-out: FS3-IC50
How it was run: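 hENPP2 in 50 mM Tris-HCl pH 8.0, 250 mM NaCl, 5 mM KCl, 1 mM MgCl2, 1 mM CaCl2, 0.1% fatty-acid-free BSA, preincubated with compound 30 min at room temperature. The 0.75 μM FS-3 solution was added and the mixture incubated 30 min at 30° C. Fluorescence (ex 485/em 520 nm) gives IC50.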

hENPP2 [2] = target: T1, hENPP2; assay: hENPP2 biochemical assay, LPC as substrate; settings: LPC (palmitoyl 16:0) as substrate
How it was run: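 Human ENPP2 in 50 mM Tris-HCl pH 8.5, 500 mM NaCl, 5 mM KCl, 10 mM CaCl2, 0.1% fatty-acid-free BSA, reacted 30 min at 37 °C with LPC 16:0 (150 µM solution added 1:1). Released choline measured via choline oxidase/peroxidase/TOOS/4-aminoantipyrine quinoneimine dye at 555 nm; IC50 reported.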

Row | SMILES | IC50 (LPA 18:2 in human plasma) [nM] | IC50 (LPA 18:2 in rat plasma) [nM] | IC50 (hENPP2 [1]) [nM] | IC50 (hENPP2 [2]) [nM]
1 | CCc1nc2ccc(C3CCN(S(C)(=O)=O)CC3)cn2c1N(C)c1nc(-c2ccc(F)cc2)cs1 [Compound 80, N-(2-ethyl-6-(1-(methylsulfonyl)piperidin-4-yl)imidazo[1,2-a]pyridin-3-yl)-4-(4-fluorophenyl)-N-methylthiazol-2-amine] | > 1000 | 500 to 1000 | 0.01 to 100 | 500 to 1000
2 | CCc1nc2c(F)cc(N3CCN(CC(=O)NC)CC3)cn2c1N(C)c1nc(-c2ccc(F)cc2)c(C#N)s1 [Compound 13, 2-(4-(3-((5-cyano-4-(4-fluorophenyl)thiazol-2-yl)(methyl)amino)-2-ethyl-8-fluoroimidazo[1,2-a]pyridin-6-yl)piperazin-1-yl)-N-methylacetamide] | 100 to 500 | 0.01 to 100 |  | 
3 | CCc1nc2ccc(C3CCN(S(C)(=O)=O)CC3)cn2c1N(C)c1nc(-c2ccc(F)cc2)c(C(=O)C(F)(F)F)s1 [Compound 160, 1-(2-((2-ethyl-6-(1-(methylsulfonyl)piperidin-4-yl)imidazo[1,2-a]pyridin-3-yl)(methyl)amino)-4-(4-fluorophenyl)thiazol-5-yl)-2,2,2-trifluoroethanone] |  | 0.01 to 100 | 0.01 to 100 | 100 to 500
4 | CCc1nc2ccc(C3CCN(CC(=O)N(C)C)CC3)cn2c1N(C)c1nc(-c2ccc(F)cc2C#N)cs1 [Compound 171, 2-(4-(3-((4-(2-cyano-4-fluorophenyl)thiazol-2-yl)(methyl)amino)-2-ethylimidazo[1,2-a]pyridin-6-yl)piperidin-1-yl)-N,N-dimethylacetamide] |  | 100 to 500 | 0.01 to 100 | 0.01 to 100
5 | CCc1nc2ccc(N3CCN(CC(=O)N4CCC4)CC3)cn2c1N(C)c1nc(-c2ccc(F)cc2C#N)cs1 [Compound 167, 2-(2-((6-(4-(2-(azetidin-1-yl)-2-oxoethyl)piperazin-1-yl)-2-ethylimidazo[1,2-a]pyridin-3-yl)(methyl)amino)thiazol-4-yl)-5-fluorobenzonitrile] |  | 100 to 500 | 0.01 to 100 | 0.01 to 100
6 | CCc1nc2ccc(N3CCN(CC(=O)N(C)C)CC3)cn2c1N(C)c1nc(-c2ccc(F)cc2)c(CO)s1 [Compound 155, 2-(4-(2-ethyl-3-((4-(4-fluorophenyl)-5-(hydroxymethyl)thiazol-2-yl)(methyl)amino)imidazo[1,2-a]pyridin-6-yl)piperazin-1-yl)-N,N-dimethylacetamide] |  | 100 to 500 | 0.01 to 100 | 500 to 1000
7 | CCc1nc2ccc(N3CCN(Cc4ncc[nH]4)CC3)cn2c1N(C)c1nc(-c2ccc(F)cc2)cs1 [Compound 226, N-(6-(4-((1H-imidazol-2-yl)methyl)piperazin-1-yl)-2-ethylimidazo[1,2-a]pyridin-3-yl)-4-(4-fluorophenyl)-N-methylthiazol-2-amine] |  | > 1000 | 0.01 to 100 | > 1000
8 | CCc1nc2ccc(C3CCN(S(C)(=O)=O)CC3)cn2c1N(C)c1nc(-c2ccc(F)cc2)c(CO)s1 [Compound 147, (2-((2-ethyl-6-(1-(methylsulfonyl)piperidin-4-yl)imidazo[1,2-a]pyridin-3-yl)(methyl)amino)-4-(4-fluorophenyl)thiazol-5-yl)methanol] |  | 100 to 500 | 0.01 to 100 | 100 to 500
9 | CCc1nc2ccc(C3CCN(CC(=O)N4CC(O)C4)CC3)cn2c1N(C)c1nc(-c2ccc(F)cc2C#N)cs1 [Compound 170, 2-(2-((2-ethyl-6-(1-(2-(3-hydroxyazetidin-1-yl)-2-oxoethyl)piperidin-4-yl)imidazo[1,2-a]pyridin-3-yl)(methyl)amino)thiazol-4-yl)-5-fluorobenzonitrile] |  | 100 to 500 | 0.01 to 100 | 0.01 to 100
10 | CCc1nc2ccc(C3=CCN(S(C)(=O)=O)CC3)cn2c1N(C)c1nccc(-c2ccc(F)cc2)n1 [Compound 187, 2-ethyl-N-(4-(4-fluorophenyl)pyrimidin-2-yl)-N-methyl-6-(1-(methylsulfonyl)-1,2,3,6-tetrahydropyridin-4-yl)imidazo[1,2-a]pyridin-3-amine] |  | 100 to 500 | 0.01 to 100 | > 1000
11 | CCc1nc2ccc(C3CCN(CC(=O)N4CC(O)C4)CC3)cn2c1N(C)c1nc(-c2ccc(F)cc2)c(C#N)s1 [Compound 141, 2-((2-ethyl-6-(1-(2-(3-hydroxyazetidin-1-yl)-2-oxoethyl)piperidin-4-yl)imidazo[1,2-a]pyridin-3-yl)(methyl)amino)-4-(4-fluorophenyl)thiazole-5-carbonitrile] |  | 0.01 to 100 | 0.01 to 100 | 0.01 to 100

Other lines, results leading:

Row | IC50 (LPA 18:2 in human plasma) [nM] | IC50 (LPA 18:2 in rat plasma) [nM] | IC50 (hENPP2 [1]) [nM] | IC50 (hENPP2 [2]) [nM] | SMILES
12 | > 1000 | > 1000 | 0.01 to 100 | 100 to 500 | CCc1nc2ccc(C3CCN(CC(=O)N4CC(O)C4)CC3)cn2c1N(C)c1nc(-c2ccc(F)cc2)cs1 [Compound 110, 2-(4-(2-ethyl-3-((4-(4-fluorophenyl)thiazol-2-yl)(methyl)amino)imidazo[1,2-a]pyridin-6-yl)piperidin-1-yl)-(3-hydroxyazetidin-1-yl)ethanone]
13 |  | > 1000 | 0.01 to 100 | > 1000 | CCc1nc2ccc(N3CCN(S(=O)(=O)CCCO)CC3)cn2c1N(C)c1nc(-c2ccc(F)cc2)cs1 [Compound 58, 3-(4-(2-ethyl-3-((4-(4-fluorophenyl)thiazol-2-yl)(methyl)amino)imidazo[1,2-a]pyridin-6-yl)piperazin-1-ylsulfonyl)propan-1-ol]
14 |  | > 1000 | 0.01 to 100 | > 1000 | CCc1nc2ccc(N3CCN(C(=O)C4CCCN4)CC3)cn2c1N(C)c1nc(-c2ccc(F)cc2)cs1 (stereo not shown) [Compound 46, (4-(2-ethyl-3-((4-(4-fluorophenyl)thiazol-2-yl)(methyl)amino)imidazo[1,2-a]pyridin-6-yl)piperazin-1-yl)(pyrrolidin-2-yl)methanone]
15 |  | > 1000 | 0.01 to 100 | 500 to 1000 | CCc1nc2ccc(C3=CCN(S(=O)(=O)CCCO)CC3)cn2c1N(C)c1nc(-c2ccc(F)cc2)cs1 [Compound 75, 3-(4-(2-ethyl-3-((4-(4-fluorophenyl)thiazol-2-yl)(methyl)amino)imidazo[1,2-a]pyridin-6-yl)-5,6-dihydropyridin-1(2H)-ylsulfonyl)propan-1-ol]
16 |  | > 1000 | 0.01 to 100 | 500 to 1000 | CCc1nc2ccc(N3CCN(S(C)(=O)=O)CC3)cn2c1N(C)c1nc(-c2ccc(F)cc2)cs1 [Compound 54, N-(2-ethyl-6-(4-(methylsulfonyl)piperazin-1-yl)imidazo [1,2-a]pyridin-3-yl)-4-(4-fluorophenyl)-N-methylthiazol-2-amine]
17 |  | > 1000 | 0.01 to 100 | 500 to 1000 | CCc1nc2ccc(C3CCN(S(=O)(=O)CCN4CCOCC4)CC3)cn2c1N(C)c1nc(-c2ccc(F)cc2)cs1 [Compound 91, N-(2-ethyl-6-(1-(2-morpholinoethylsulfonyl)piperidin-4 yl)imidazo[1,2-a]pyridin-3-yl)-4-(4-fluorophenyl)-N-methylthiazol-2-amine]
